The source of these data is ChEMBL document CHEMBL2434832, “Structure-based identification of novel PPAR gamma ligands” (Bioorg Med Chem Lett, 2013).

The first series has as its target T1, Peroxisome proliferator-activated receptor gamma (Homo sapiens) (UniProt P37231).
T1 sequence (whole entry): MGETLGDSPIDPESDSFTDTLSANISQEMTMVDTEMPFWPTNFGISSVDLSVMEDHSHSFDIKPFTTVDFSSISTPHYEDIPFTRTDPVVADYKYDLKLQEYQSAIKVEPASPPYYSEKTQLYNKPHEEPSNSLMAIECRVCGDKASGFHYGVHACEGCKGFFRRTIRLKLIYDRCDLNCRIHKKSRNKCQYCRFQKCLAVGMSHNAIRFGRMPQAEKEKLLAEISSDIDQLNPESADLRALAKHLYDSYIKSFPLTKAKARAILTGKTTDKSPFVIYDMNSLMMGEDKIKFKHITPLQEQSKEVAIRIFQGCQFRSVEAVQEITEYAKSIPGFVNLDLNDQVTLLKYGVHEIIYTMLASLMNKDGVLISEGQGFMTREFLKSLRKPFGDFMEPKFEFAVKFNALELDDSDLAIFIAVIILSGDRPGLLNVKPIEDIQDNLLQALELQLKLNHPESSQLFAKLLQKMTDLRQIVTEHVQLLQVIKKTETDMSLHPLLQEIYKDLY
The series can be described thus: Binding affinity to human PPARgamma LBD expressed in Escherichia coli BL21 DE3 assessed as melting temperature at 33 uM after 2 hrs using SYPRO orange dye.
In the case of `COc1cccc(/C=C2\SC(=S)N(CCCC(=O)N3CCC(C(=O)O)CC3)C2=O)c1`, the Tm amounted to 49 °C.

Take `O=C(O)c1ccc(COc2ccccc2C=C2C(=O)c3ccccc3C2=O)cc1`: the Tm is 53 °C.

On to `Cc1ccc(S(=O)(=O)Cc2noc(CCC(=O)O)n2)cc1`, for which the Tm amounted to 46 °C.

Regarding `C[C@@H](Oc1ccc(/C=C2/C(=O)N=C(O)N(c3cccc(Br)c3)C2=O)cc1)C(=O)O`, the Tm turned out to be 46 °C.

On to `CN(CCOc1ccc(CC2SC(=O)NC2=O)cc1)c1ccccn1` (configuration not stated), for which the Tm amounted to 49 °C.

For `Cc1ccccc1Nc1nc(N)nc(CSc2nc3ccccc3c(=O)[nH]2)n1`, the Tm is 46 °C.

With `O=C(Nc1ccc(C(=O)O)cc1)/C(=C\c1ccc2c(c1)OCO2)NC(=O)c1ccc(Br)o1`, the Tm amounted to 46 °C.

`CSc1ccccc1-n1nnnc1SCC(=O)O`: the Tm was found to be 46 °C.

Consider `Cc1c(/C=C2\SC(Nc3cccc(C(=O)O)c3)=NC2=O)c2ccccc2n1C`, for which the Tm was 46 °C.

In the case of `O=C(O)Cn1ccc2cc(OCc3ccccc3)ccc21`, the Tm was 46 °C.

In the case of `Cc1ccc(Cn2c(=N)n(CC(=O)O)c3ccccc32)cc1`, the Tm stood at 46 °C.

As to `O=C(O)Cn1c(SCCOc2ccc3ccccc3c2)nc2ccccc21`, the Tm worked out at 46 °C.

For the compound `O=C(CN1C(=O)c2ccccc2C1=O)NCc1ccc(C(=O)O)cc1`, the Tm stood at 46 °C.

Regarding `O=C(O)c1ccc(-n2nnnc2SCc2ccccc2Br)cc1`, the Tm worked out at 46 °C.

For another series, the target named is T2, Peroxisome proliferator-activated receptor gamma (Homo sapiens, UniProt P37231).
T2 sequence (P37231 whole entry): T1 sequence (whole entry)
The series can be described thus: Displacement of fluormone from human PPARgamma LBD expressed in Escherichia coli BL21 DE3 by fluorescence polarization assay. (In fluorescence polarisation assays a small probe gives low polarisation when free and higher when bound to something large.)
A word on the IC50: it is the concentration that gives 50% inhibition. A higher IC50 goes with a need for much substance. Regarding `O=C(O)c1ccc(COc2ccccc2C=C2C(=O)c3ccccc3C2=O)cc1`, the IC50 worked out at 1140 nM.

Compound `O=C(O)Cn1c(SCCOc2ccc3ccccc3c2)nc2ccccc21` registered an IC50 of 2220 nM.

Turning to `O=C(O)c1ccc(-n2nnnc2SCc2ccccc2Br)cc1`, the half-maximal inhibitory concentration (IC50) turned out to be 5130 nM.

Test system in the next series: not listed separately
Description: Solubility of the compound in DMSO. It counts as physicochemical.
`COc1cccc(/C=C2\SC(=S)N(CCCC(=O)N3CCC(C(=O)O)CC3)C2=O)c1`: the solubility entry is “soluble”.

For the compound `O=C(O)c1ccc(COc2ccccc2C=C2C(=O)c3ccccc3C2=O)cc1`, the solubility result is on record as “soluble”.

For the compound `Cc1ccc(S(=O)(=O)Cc2noc(CCC(=O)O)n2)cc1`, the solubility entry is given as “soluble”.

Turning to `C[C@@H](Oc1ccc(/C=C2/C(=O)N=C(O)N(c3cccc(Br)c3)C2=O)cc1)C(=O)O`, the solubility entry is reported as “soluble”.

In the case of `Cc1ccccc1Nc1nc(N)nc(CSc2nc3ccccc3c(=O)[nH]2)n1`, the solubility entry is given as “soluble”.

Take `O=C(Nc1ccc(C(=O)O)cc1)/C(=C\c1ccc2c(c1)OCO2)NC(=O)c1ccc(Br)o1`: the solubility result is “soluble”.

Turning to `CSc1ccccc1-n1nnnc1SCC(=O)O`, the solubility result is “soluble”.

As for `Cc1c(/C=C2\SC(Nc3cccc(C(=O)O)c3)=NC2=O)c2ccccc2n1C`, the solubility entry is recorded as “soluble”.

For `CCOc1cc(/C=C2/SC(Nc3cccc(C(=O)O)c3)=NC2=O)ccc1OC`, the solubility entry is recorded as “Insoluble”.

Turning to `O=C(O)Cn1ccc2cc(OCc3ccccc3)ccc21`, the solubility entry is “soluble”.

Consider `Cc1ccc(Cn2c(=N)n(CC(=O)O)c3ccccc32)cc1`, for which the solubility result is reported as “soluble”.

For the compound `O=C(O)Cn1c(SCCOc2ccc3ccccc3c2)nc2ccccc21`, the solubility entry is on record as “soluble”.

In the case of `CN1CCN(S(=O)(=O)c2ccc(SCC(=O)O)nc2)CC1`, the solubility result is “Insoluble”.

Regarding `O=C(CN1C(=O)c2ccccc2C1=O)NCc1ccc(C(=O)O)cc1`, the solubility entry was “soluble”.

`O=C(O)c1ccc(-n2nnnc2SCc2ccccc2Br)cc1`: the solubility entry is on record as “soluble”.
